# Test results from patent EP2140864A2 (H. Lundbeck A/S, priority 2001, dated 2002).
# Biological target: T1, human GAL3 receptor (Homo sapiens, UniProt O60755)
# T1 construct: expressed in transfected cells
# T1 sequence (O60755 1-368): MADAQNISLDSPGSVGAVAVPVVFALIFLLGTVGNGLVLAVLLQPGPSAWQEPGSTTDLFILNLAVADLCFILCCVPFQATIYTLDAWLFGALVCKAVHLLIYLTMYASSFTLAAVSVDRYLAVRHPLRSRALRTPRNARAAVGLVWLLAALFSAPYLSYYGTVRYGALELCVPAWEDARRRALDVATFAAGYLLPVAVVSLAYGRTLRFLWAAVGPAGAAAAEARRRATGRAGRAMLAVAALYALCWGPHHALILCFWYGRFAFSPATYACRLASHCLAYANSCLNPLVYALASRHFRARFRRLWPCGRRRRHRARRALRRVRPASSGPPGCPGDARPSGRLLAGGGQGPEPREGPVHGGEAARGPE
# Assay: Radioligand binding at cloned human GAL3 receptor
# Conditions: indolones, cloned human receptor; read-out: Ki GalR3
# Protocol: The present invention provides for a method of determining the binding affinity of a GAL3 antagonist, wherein the GAL3 antagonist is dissolved in a "suitable solvent". A "suitable solvent" means one which permits the measurement of binding affinity of the GAL3 antagonist to the human GAL3 receptor at concentrations less than 1 µM, preferably less than 100 nM. Examples of solvents include, but are not limited to, DMSO, ethanol, N,N-dimethylacetamide, or water. For indolones, the preferred solvent is 3% DMSO (final concentration in the assay). For pyrimidines, the preferred solvent is 1% ethanol/0.09% polypuronic acid F-127 (final concentration in the assay). For any other type of compounds, the preferred solvent is the solvent which permits the measurement of binding affinity of a GAL3 antagonist at the lowest concentration. Once a suitable solvent is ascertained for the binding assay of the human GAL3 receptor, the same solvent is used in assays to determine the binding affinity at the GAL1 receptor, the serotonin transporter, the norepinephrine transporter, and the dopamine transporter. A solvent of 0.4% DMSO is used in the central monoamine oxidase enzyme assay.
# The binding properties of the pyrimidines of the present invention were evaluated at the cloned human galanin receptors, GAL1, GAL2, and GAL3, using protocols described herein.
# The binding properties of the indolones of the present invention were evaluated at the cloned human galanin receptors, GAL1, GAL2, and GAL3, using protocols described herein.
# LM(tk-) cells were stably transfected with the human GAL1 or GAL3 receptor. CHO cells were stably transfected with the human GAL2 receptor.
# cDNAs for the human and rat GAL1, and human and rat GAL3 receptors were transfected with a G-418 resistant gene into the mouse fibroblast LM(tk-) cell line by a calcium phosphate transfection method (Cullen, 1987). Stably transfected cells were selected with G-418. Human and rat GAL2 receptors were similarly transfected into CHO cells.
# Membranes were harvested from stably transfected LM(tk-) cells. Adherent cells were washed twice in ice-cold phosphate buffered saline (138 mM NaCl, 8.1 mM Na2HPO4, 2.5 mM KCl, 1.2 mM KH2PO4, 0.9 mM CaCl2, 0.5 mM MgCl2, pH 7.4) and lysed by sonication in ice-cold sonication buffer (20 mM Tris-HCl, 5 mM EDTA, pH 7.7). Large particles and debris were cleared by low speed centrifugation (200 x g, 5 min, 4°C). Membranes were collected from the supernatant fraction by centrifugation (32,000 x g, 18 min, 4°C), washed with ice-cold hypotonic buffer, and collected again by centrifugation (32,000 x g, 18 min, 4°C). The final membrane pellet was resuspended by sonication into a small volume of ice-cold binding buffer (-1 ml for every 5 plates: 10 mM NaCl, 20 mM HEPES, 0.22 mM KH2PO4, 1.26 mM CaCl2, 0.81 mM MgSO4, pH 7.4). Protein concentration was measured by the Bradford method (Bradford, 1976) using Bio-Rad Reagent, with bovine serum albumin as a standard. Membranes were held on ice for up to one hour and used fresh, or flash frozen and stored in liquid nitrogen. Membranes were prepared similarly from CHO cells.
# Galanin Recentors: Binding assays were performed according to the following published methods: human GAL3 (PCT International Publication No. WO 98/15570), human GAL1 (PCT International Publication No. WO 95/2260), human GAL2 (PCT International Publication No. WO 97/26853).
# Binding data were analyzed using nonlinear regression and statistical techniques available in the GraphPAD Prism package (San Diego, CA). Enzymatic assay data were derived from a standard curve of reference compound data.
row,Ki [nM],Compound
1,234,O=C1/C(=N\c2ccc(Cl)nc2)c2ccccc2N1c1ccsc1 [Example 267]
2,27,"O=C1/C(=N\c2cc(F)cc(F)c2)c2ccccc2N1c1ccsc1 [Example 264, (3Z)-3-[(3,5-DIFLUOROPHENYL)IMINO]-1-(3-THIENYL)-1,3-DIHYDRO-2H-INDOL-2-ONE]"
3,136,Cc1ccc(/N=C2\C(=O)N(c3ccsc3)c3ccccc32)cc1 [Example 263]
4,236,"CCOC(=O)c1cccc(/N=C2\C(=O)N(c3ccsc3)c3ccccc32)c1 [Example 266, ETHYL 3-{[(3Z)-2-OXO-1-(3-THIENYL)-1,2-DIHYDRO-3H-INDOL-3-YLIDENE]AMINO}BENZOATE]"
5,67,"COc1ccc2c(c1)N(c1ccccc1)C(=O)/C2=N\c1ccc(Cl)c(Cl)c1 [Example 258, (3Z)-3-[(3,4-DICHLOROPHENYL)IMINO]-6-METHOXY-1-PHENYL-1,3-DIHYDRO-2H-INDOL-2-ONE]"
6,333,"O=C1/C(=N\c2cccc3ncccc23)c2ccccc2N1c1ccccc1 [Example 282, (3Z)-1-PHENYL-3-(5-QUINOLINYLIMINO)-1,3-DIHYDRO-2H-INDOL-2-ONE]"
7,260,"COc1ccc(/N=C2\C(=O)N(c3ccccc3)c3ccccc32)c(OC)c1 [Example 287, (3Z)-3-[(2,4-DIMETHOXYPHENYL)IMINO]-1-PHENYL-1,3-DIHYDRO-2H-INDOL-2-ONE]"
8,33,"O=C1/C(=N\c2ccc(I)cc2)c2ccccc2N1c1ccccc1 [Example 283, (3Z)-3-[(4-IODOPHENYL)IMINO]-1-PHENYL-1,3-DIHYDRO-2H-INDOL-2-ONE]"
9,46,"O=C1/C(=N\c2ccc(Br)cc2)c2ccccc2N1c1ccsc1 [Example 269, (3Z)-3-[(4-BROMOPHENYL)IMINO]-1-(3-THIENYL)-1,3-DIHYDRO-2H-INDOL-2-ONE]"
10,34,"O=C1C(=Nc2ccc(Cl)cc2)c2ccccc2N1c1ccsc1 [Example 292, (3Z)-3-[(4-CHLOROPHENTYL)IMINO]-1-(3-THIENYL)-1,3-DIHYDRO-2H-INDOL-2-ONE]"
11,521,Cc1noc(C)c1CN1C(=O)/C(=N\c2cc(Cl)cc(Cl)c2)c2ccccc21 [Example 280]

row,Compound,Ki [nM]
1,O=C1/C(=N\c2ccc(F)c(F)c2)c2ccccc2N1Cc1cccnc1 [Example 276],192
2,O=C1/C(=N\c2ccc(Cl)c(Cl)c2)c2ccccc2N1Cc1ccccn1 [Example 254],64
3,O=C1/C(=N\c2cc(Cl)cc(Cl)c2)c2ccccc2N1Cc1cccnc1 [Example 279],81
4,O=C1/C(=N\c2ccc(Cl)c(Cl)c2)c2ccccc2N1Cc1cccnc1 [Example 311],32

# Same assay, conditions: pyrimidines, cloned human receptor; read-out: Ki GalR3
row,Compound,Ki [nM]
1,Cc1ccc(Nc2cc(N(C)C)nc(N3CCN(S(=O)(=O)c4ccc(C)cc4)CC3)n2)cc1 [Example 84],261
2,CN(C)c1cc(Nc2ccc(Cl)cc2)nc(N2CCN(Cc3ccccc3)CC2)n1 [Example 171],25
3,CN(C)c1cc(Nc2cccc(OCc3ccccc3)c2)nc(N2CCN(c3cccc(Br)c3)CC2)n1 [Example 203],52
4,COCCN(CCOC)c1nc(Nc2ccc(C)cc2)cc(N2CCCCC2)n1 [Example 45],505
5,CN(C)c1cc(Nc2cccc(OCc3ccccc3)c2)nc(N2CCN(c3cnccn3)CC2)n1 [Example 179],15
6,CN(C)c1cc(Nc2cc(F)c(F)cc2F)nc(N2CCN(c3ccccn3)CC2)n1 [Example 219],558
7,CN(C)c1cc(Nc2ccc(C(C)(C)C)cc2)nc(Nc2ccccc2)n1 [Example 63],731
8,CN(C)c1cc(Nc2ccc(Cl)c(Cl)c2Cl)nc(N2CCN(Cc3ccccc3)CC2)n1 [Example 230],52
9,CN(C)c1cc(NC2CCC(C(C)(C)C)CC2)nc(N2CCN(Cc3ccccc3)CC2)n1 (stereo not shown) [Example 169],77
10,"CCCc1ccccc1Nc1cc(N(C)C)nc(N2CCN(c3ccccn3)CC2)n1 [Example 185, N^4,N^4-dimethyl-N^6-(2-propylphenyl)-2-[4-(2-pyridinyl)-1-piperazinyl]-4,6-pyrimidinediamine]",365
11,CN(C)c1cccc(Nc2cc(N(C)C)nc(N3CCN(Cc4ccccc4)CC3)n2)c1 [Example 126],99
12,CN(C)c1cc(Nc2ccc(Cl)c(Cl)c2)nc(N2CCN(c3ccccn3)CC2)n1 [Example 124],36
13,Cc1ccc(Nc2cc(N3CCCCC3)nc(N3Cc4cccc5cccc(c45)C3)n2)cc1 [Example 43],107
14,Cc1ccc(Nc2cc(N3CCCCC3)nc(N3CCc4ccccc43)n2)cc1 [Example 39],128
15,CN(C)c1cc(Nc2cnc3ccccc3c2)nc(N2CCN(c3ccccn3)CC2)n1 [Example 132],618
16,CN(C)c1cc(Nc2cccc(Cc3ccccc3)c2)nc(N2CCN(c3ccccn3)CC2)n1 [Example 216],50
17,Cc1ccc(Nc2cc(N(C)C)nc(N3CCN(CC4CCCO4)CC3)n2)cc1 (stereo not shown) [Example 154],441
18,COc1ccccc1CN1CCN(c2nc(Nc3ccc(C)cc3)cc(N(C)C)n2)CC1 [Example 175],56
19,COc1cccc(Nc2cc(N(C)C)nc(N3CCN(c4ccc(Br)cn4)CC3)n2)c1 [Example 143],144

row,Compound,Ki [nM]
1,COc1cc(Nc2cc(N(C)C)nc(N3CCN(c4ccccn4)CC3)n2)cc(OC)c1 [Example 202],740
2,COc1ccc(CN2CCN(c3nc(Nc4ccc(C)cc4)cc(N(C)C)n3)CC2)cc1 [Example 235],114
3,COc1cccc(Nc2cc(N(C)C)nc(N3CCN(Cc4ccncc4)CC3)n2)c1 [Example 147],640
4,CN(C)c1cc(Nc2ccc(Cl)cc2Cl)nc(N2CCN(c3ccccn3)CC2)n1 [Example 205],193
5,CN(C)c1cc(Nc2ccc(Br)cc2F)nc(N2CCN(c3ccccn3)CC2)n1 [Example 199],199
6,Cc1ccc(Nc2nc(Nc3cccc(C)c3)cc(N(C)C)n2)cc1 [Example 53],980
7,CN(C)c1cc(Nc2cccc(OCc3ccccc3)c2)nc(N2CCN(c3ccccn3)CC2)n1 [Example 115],13
8,CN(C)c1cc(NC2CCc3ccccc3C2)nc(N2CCN(Cc3ccccc3)CC2)n1 (stereo not shown) [Example 173],117
9,Cc1ccc(Nc2cc(N(C)C)nc(N3CCN(c4ccccn4)CC3)n2)cc1Nc1ccccn1 [Example 242],166
10,Cc1ccc(Nc2cc(N(C)C)nc(NCCCc3ccccc3)n2)cc1 [Example 162],42
11,CN(C)c1cc(Nc2ccc(C3CCCCC3)cc2)nc(N2CCN(c3ccccn3)CC2)n1 [Example 121],21
12,CN(C)c1cc(Nc2ccc3c(c2)OCO3)nc(N2CCN(c3ccccn3)CC2)n1 [Example 118],508
13,CN(C)c1cc(Nc2ccccc2C(C)(C)C)nc(N2CCN(c3ccccn3)CC2)n1 [Example 212],231
14,CN(C)c1cc(Nc2ccc(C(F)(F)F)cc2Cl)nc(N2CCN(Cc3ccccc3)CC2)n1 [Example 244],55
15,COc1cccc(Nc2cc(N(C)C)nc(N3CCN(Cc4ccsc4)CC3)n2)c1 [Example 146],72
16,CCCCCc1ccc(Nc2cc(N(C)C)nc(N3CCN(c4ccccn4)CC3)n2)cc1 [Example 210],58
17,CN(C)c1cc(Nc2ccc(SC(F)(F)F)c(Cl)c2)nc(N2CCN(c3ccccn3)CC2)n1 [Example 134],25
18,CC1CCC(Nc2cc(N(C)C)nc(N3CCN(Cc4ccccc4)CC3)n2)CC1 (stereo not shown) [Example 157],273
